# Measurements taken from PMC5907918 (Biochemistry, 2017).
# Assays:
# human Sts-2HP = target: T1, human Sts-2HP (Homo sapiens, UniProt P57075); assay: Steady state kinetics of phosphatase substrates, human Sts-2HP; format: biochemical; details: substrate as labelled, 298 K
# T1 sequence (P57075 393-657): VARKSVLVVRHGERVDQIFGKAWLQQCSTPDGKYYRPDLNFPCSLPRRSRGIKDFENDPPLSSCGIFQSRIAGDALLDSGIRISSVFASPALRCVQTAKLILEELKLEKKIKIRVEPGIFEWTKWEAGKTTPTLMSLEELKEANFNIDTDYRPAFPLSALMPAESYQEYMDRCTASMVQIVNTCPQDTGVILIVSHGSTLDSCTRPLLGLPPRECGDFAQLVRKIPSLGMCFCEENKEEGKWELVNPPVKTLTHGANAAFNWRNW
# human Sts-1HP [1] = target: T2, human Sts-1HP (Homo sapiens, UniProt Q8TF42); assay: Steady state kinetics of phosphatase substrates, human Sts-1HP; format: biochemical; details: substrate as labelled, 298 K
# human Sts-1HP [2] = target: T2, human Sts-1HP; assay: Inhibition of Sts-1HP phosphatase activity; format: biochemical; details: known phosphatase inhibitors tested
# PTP-1B = details: cited from earlier work
# Full-length Sts-1 = Full-length Sts-1 (Homo sapiens, UniProt Q8TF42); assay: Steady state kinetics of phosphatase substrates, full-length Sts-1; format: biochemical; details: substrate as labelled, 298 K
# [3] = target: histidine phosphatase domain of human Sts-1 (Sts-1HP) (human) (UniProt Q8TF42); assay: crystal structure
# T2 sequence (Q8TF42 380-647): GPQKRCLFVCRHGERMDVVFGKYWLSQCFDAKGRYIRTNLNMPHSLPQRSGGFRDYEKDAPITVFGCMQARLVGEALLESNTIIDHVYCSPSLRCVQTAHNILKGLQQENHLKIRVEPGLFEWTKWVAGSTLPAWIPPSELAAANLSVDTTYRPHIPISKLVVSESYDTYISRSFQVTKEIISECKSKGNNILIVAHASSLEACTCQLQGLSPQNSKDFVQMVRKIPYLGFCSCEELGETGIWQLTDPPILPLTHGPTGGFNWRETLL
# Sequence of Full-length Sts-1 (Q8TF42 whole entry, the tested form may be a part): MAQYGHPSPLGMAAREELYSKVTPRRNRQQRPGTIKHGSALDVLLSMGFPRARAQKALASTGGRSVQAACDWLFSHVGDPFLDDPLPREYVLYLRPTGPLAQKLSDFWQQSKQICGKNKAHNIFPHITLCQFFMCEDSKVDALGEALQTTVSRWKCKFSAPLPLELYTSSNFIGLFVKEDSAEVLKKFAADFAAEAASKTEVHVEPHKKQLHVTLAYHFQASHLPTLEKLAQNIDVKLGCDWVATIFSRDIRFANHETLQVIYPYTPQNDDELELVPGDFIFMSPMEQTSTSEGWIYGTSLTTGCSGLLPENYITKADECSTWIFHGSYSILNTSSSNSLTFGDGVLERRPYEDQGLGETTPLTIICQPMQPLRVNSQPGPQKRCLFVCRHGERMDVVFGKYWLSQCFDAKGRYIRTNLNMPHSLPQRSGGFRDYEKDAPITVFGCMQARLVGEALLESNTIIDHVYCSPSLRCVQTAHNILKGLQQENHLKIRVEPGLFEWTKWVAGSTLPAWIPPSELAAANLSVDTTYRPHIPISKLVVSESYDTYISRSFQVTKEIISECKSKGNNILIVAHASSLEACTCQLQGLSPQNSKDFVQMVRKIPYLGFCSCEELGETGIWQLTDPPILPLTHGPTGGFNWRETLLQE
Compound,Km (human Sts-2HP),kcat (human Sts-2HP),Km (human Sts-1HP [1]),kcat (human Sts-1HP [1]),inhibition of Sts-1HP phosphatase activity (in words) (human Sts-1HP [2]),further results
"Cc1cc(=O)oc2c(F)c(OP(=O)(O)O)c(F)cc12 [DifMUP, 6,8-Difluoro-4-Methylumbelliferyl Phosphate]",850 ± 230 µM,4.92 ± 0.76 s⁻¹,2 µM,100.68 s⁻¹,–,–
"CN(N=O)c1ccc(O)c(O)c1 [Methyl-dephostatin, methyl-3,4-dephostatin]",–,–,–,–,not affected,IC50 (PTP-1B): 3.5 µM
"COc1ccc2c(c1)Oc1cc(OP(=O)(O)O)ccc1C21OC(=O)c2ccccc21 (stereo not drawn) [OMFP, 3-O-Methylfluorescein phosphate]",1070 ± 240 µM,5.86 ± 0.78 s⁻¹,190 ± 30 µM,786.1 ± 52.4 s⁻¹,–,–
"O=C1C(=NNc2ccc(S(=O)(=O)O)cc2)C(c2ccc([N+](=O)[O-])cc2)=NN1c1ccccc1 [PHPS1, 4-[2-[1,5-dihydro-3-(4-nitrophenyl)-5-oxo-1-phenyl-4H-pyrazol-4-ylidene]hydrazinyl]-benzenesulfonic acid]",–,–,–,–,potent competitive inhibitor,IC50 (PTP-1B): 19 µM
Nc1ccc(S(=O)(=O)O)cc1 [Sulfanilic acid],–,–,–,–,modest inhibitor,–
"O=[N+]([O-])c1ccc(OP(=O)(O)O)cc1 [pNPP, para-nitrophenyl phosphate]",5610 ± 1690 µM,1.23 ± 0.15 s⁻¹,2640 ± 480 µM,13.62 ± 0.63 s⁻¹,–,Km (Full-length Sts-1): 3310 ± 270 µM; kcat (Full-length Sts-1): 158.6 ± 6.48 s⁻¹
O=P(O)(O)OC(CO)CO [β-glycerophosphate],–,–,–,–,did not show any observable level of inhibition,–
histidine phosphatase domain of human Sts-1 (Sts-1HP) (from UniProt Q8TF42 369-636) (domain or fragment),–,–,–,–,–,stoichiometry N [3]: 2
